pEC50, pIC50: −log10 of the molar value.
Experiments:
HSP90a protein = target: T1, HSP90a protein (Homo sapiens, UniProt P07900); experiment: HSP90α-binding fluorescent polarization (FP) assay, BODIPY-labeled RNK04010 probe; settings: FP competition with RNK04010 (BODIPY-labeled), 5 nM, 300 min at 25° C.
T1 construct: purchased BPS Bioscience 50298
Method in brief: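 Compound dilutions (20 μM to 5.2 nM, 2.5-fold) are combined with 5 nM final labeled probe, and HSP90a N-terminal protein is added last. Plates are shaken briefly and held at 25° C for 120 min (FITC-geldanamycin) or 300 min (BODIPY-RNK04010), then FP is measured.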

[1] = system: MIA PaCa-2 human pancreatic carcinoma; experiment: MIA PaCa-2 CCK-8 proliferation assay; type: cell-based; settings: Homo sapiens, MIA PaCa-2, 72 h, MIA PaCa-2 cells
Method in brief: (§1)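 Three KRAS(G12C) lines are used, MIA PaCa-2 at two mutant copies and the NSCLC lines NCI-H358 and NCI-H23 at one. Each compound is titrated 3-fold from 20 μM to 1.02 nM, and proliferation is scored by CCK-8.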

[2] = system: NCI-H358 human non-small cell lung cancer; experiment: NCI-H358 CCK-8 proliferation assay; type: cell-based; settings: NCI-H358 cells, 72 hr
Method in brief: as §1

CCC(=O)N1CCN(c2nc(NCCC(=O)N3CCC(Cc4ccc(CN(C)Cc5ccc(-n6c(O)nnc6-c6cc(C(C)C)c(O)cc6O)cc5)cc4)CC3)nc3c2CCN(c2cc(O)cc4ccccc24)C3)CC1 [Compound 63, trifluoroacetic acid]
pIC50 (HSP90a protein): 6.00 to 7.00
pEC50 [1]: < 6.00
pEC50 [2]: 6.00 to 7.00

CCC(=O)N1CCN(c2nc(NCCC(=O)N3CCC(CN4CCN(Cc5ccc(-n6c(C(=O)NC(CC)CC)nnc6-c6cc(CC)c(O)cc6O)cc5)CC4)CC3)nc3c2CCN(c2cc(O)cc4ccccc24)C3)CC1 [Compound 117, 5-(5-ethyl-2,4-dihydroxyphenyl)-4-(4-((4-((1-(3-((7-(3-hydroxynaphthalen-1-yl)-4-(4-propionylpiperazin-1-yl)-5,6,7,8-tetrahydropyrido[3,4-d]pyrimidin-2-yl)amino)propanoyl)piperidin-4-yl)methyl)piperazin-1-yl)methyl)phenyl)-N-(pentan-3-yl)-4H-1,2,4-triazole-3-carboxamide, trifluoroacetic acid]
pIC50 (HSP90a protein): 6.00 to 7.00
pEC50 [2]: 6.00 to 7.00

CC(=O)N1CCN(c2nc(NCCC(=O)N3CCC(Cc4ccc(CN(C)Cc5ccc(-n6c(C(=O)NCC(F)(F)F)nnc6-c6cc(C)c(O)cc6O)cc5)cc4)CC3)nc3c2CCN(c2cccc4ccccc24)C3)C[C@H]1CC#N [Compound 122, (R)-4-(4-(((4-((1-(3-((4-(4-acetyl-3-(cyanomethyl)piperazin-1-yl)-7-(naphthalen-1-yl)-5,6,7,8-tetrahydropyrido[3,4-d]pyrimidin-2-yl)amino)propanoyl)piperidin-4-yl)methyl)benzyl)(methyl)amino)methyl)phenyl)-5-(2,4-dihydroxy-5-methylphenyl)-N-(2,2,2-trifluoroethyl)-4H-1,2,4-triazole-3-carboxamide, trifluoroacetic acid]
pIC50 (HSP90a protein): < 6.00
pEC50 [2]: < 6.00

CC(=O)N1CCN(c2nc(NCCC(=O)N3CCN(Cc4ccc(CN(C)Cc5ccc(-n6c(C(=O)NCC(F)(F)F)nnc6-c6cc(C(C)C)c(O)cc6O)cc5)cc4)CC3)nc3c2CCN(c2cccc4ccccc24)C3)C[C@H]1CC#N [Compound 124, (R)-4-(4-(((4-((4-(3-((4-(4-acetyl-3-(cyanomethyl)piperazin-1-yl)-7-(naphthalen-1-yl)-5,6,7,8-tetrahydropyrido[3,4-d]pyrimidin-2-yl)amino)propanoyl)piperazin-1-yl)methyl)benzyl)(methyl)amino)methyl)phenyl)-5-(2,4-dihydroxy-5-isopropylphenyl)-N-(2,2,2-trifluoroethyl)-4H-1,2,4-triazole-3-carboxamide, trifluoroacetic acid]
pIC50 (HSP90a protein): 6.00 to 7.00
pEC50 [2]: 6.00 to 7.00

C=CC(=O)N1CCN(c2nc(NCCC(=O)NCc3ccc(CN4CCC(Cc5ccc(-n6c(C(=O)NCC(F)(F)F)nnc6-c6cc(CC)c(O)cc6O)cc5)CC4)cc3)nc3c2CCN(c2cc(O)cc4ccccc24)C3)CC1 [Compound 125, 4-(4-((1-(4-((3-((4-(4-acryloylpiperazin-1-yl)-7-(3-hydroxynaphthalen-1-yl)-5,6,7,8-tetrahydropyrido[3,4-d]pyrimidin-2-yl)amino)propanamido)methyl)benzyl)piperidin-4-yl)methyl)phenyl)-5-(5-ethyl-2,4-dihydroxyphenyl)-N-(2,2,2-trifluoroethyl)-4H-1,2,4-triazole-3-carboxamide, trifluoroacetic acid]
pIC50 (HSP90a protein): 6.00 to 7.00
pEC50 [2]: 6.00 to 7.00

C=C(F)C(=O)N1CCN(c2nc(N3CCC(CN4CCN(Cc5ccc(-n6c(O)nnc6-c6cc(C(C)C)c(O)cc6O)cc5)CC4)CC3)nc3c2CCN(c2cccc4cccc(Cl)c24)C3)C[C@@H]1CC#N [Compound 129, (S)-2-(4-(7-(8-chloronaphthalen-1-yl)-2-(4-((4-(4-(3-(2,4-dihydroxy-5-isopropylphenyl)-5-hydroxy-4H-1,2,4-triazol-4-yl)benzyl)piperazin-1-yl)methyl)piperidin-1-yl)-5,6,7,8-tetrahydropyrido[3,4-d]pyrimidin-4-yl)-1-(2-fluoroacryloyl)piperazin-2-yl)acetonitrile]
pIC50 (HSP90a protein): > 7.00
pEC50 [2]: 6.00 to 7.00

CCC(=O)N1CCN(c2nc(=O)n(-c3ccc(C(=O)NCCOCCOc4ccc(-n5c(O)nnc5-c5cc(C(C)C)c(O)cc5O)cc4)nc3)c3nc(-c4c(O)cccc4F)c(F)cc23)[C@@H](C)C1 [Compound 130, N-(2-(2-(4-(3-(2,4-dihydroxy-5-isopropylphenyl)-5-hydroxy-4H-1,2,4-triazol-4-yl)phenoxy)ethoxy)ethyl)-5-(6-fluoro-7-(2-fluoro-6-hydroxyphenyl)-4-((S)-2-methyl-4-propionylpiperazin-1-yl)-2-oxopyrido[2,3-d]pyrimidin-1(2H)-yl)picolinamide]
pIC50 (HSP90a protein): > 7.00
pEC50 [2]: < 6.00

C=C(F)C(=O)N1CCN(c2nc(NCCC(=O)NCc3ccc(CN4CCC(Cc5ccc(-n6c(C(=O)NCC(F)(F)F)nnc6-c6cc(C(C)C)c(O)cc6O)cc5)CC4)cc3)nc3c2CCN(c2cc(O)cc4ccccc24)C3)CC1 [Compound 154, 5-(2,4-dihydroxy-5-isopropylphenyl)-4-(4-((1-(4-((3-((4-(4-(2-fluoroacryloyl)piperazin-1-yl)-7-(3-hydroxynaphthalen-1-yl)-5,6,7,8-tetrahydropyrido[3,4-d]pyrimidin-2-yl)amino)propanamido)methyl)benzyl)piperidin-4-yl)methyl)phenyl)-N-(2,2,2-trifluoroethyl)-4H-1,2,4-triazole-3-carboxamide]
pIC50 (HSP90a protein): 6.00 to 7.00
pEC50 [2]: 6.00 to 7.00

C=C(F)C(=O)N1CCN(c2nc(OC[C@@H]3CCN(C(=O)c4ccc(Nc5cc(-n6nc(C(F)(F)F)c7c6CC(C)(C)CC7=O)ccc5C(N)=O)cc4)C3)nc3c2CCN(c2cccc4cccc(Cl)c24)C3)C[C@@H]1CC#N [Compound 163, 2-((4-((R)-3-(((7-(8-chloronaphthalen-1-yl)-4-((S)-3-(cyanomethyl)-4-(2-fluoroacryloyl)piperazin-1-yl)-5,6,7,8-tetrahydropyrido[3,4-d]pyrimidin-2-yl)oxy)methyl)pyrrolidine-1-carbonyl)phenyl)amino)-4-(6,6-dimethyl-4-oxo-3-(trifluoromethyl)-4,5,6,7-tetrahydro-1H-indazol-1-yl)benzamide]
pIC50 (HSP90a protein): < 6.00
pEC50 [2]: < 6.00

C=C(F)C(=O)N1CCN(c2nc(OC[C@@H]3CCCN3C(=O)COc3ccc(Nc4cc(-n5nc(C(F)(F)F)c6c5CC(C)(C)CC6=O)ccc4C(N)=O)cc3)nc3c2CCN(c2cccc4cccc(Cl)c24)C3)C[C@@H]1CC#N [Compound 164, 2-((4-(2-((S)-2-(((7-(8-chloronaphthalen-1-yl)-4-((S)-3-(cyanomethyl)-4-(2-fluoroacryloyl)piperazin-1-yl)-5,6,7,8-tetrahydropyrido[3,4-d]pyrimidin-2-yl)oxy)methyl)pyrrolidin-1-yl)-2-oxoethoxy)phenyl)amino)-4-(6,6-dimethyl-4-oxo-3-(trifluoromethyl)-4,5,6,7-tetrahydro-1H-indazol-1-yl)benzamide]
pIC50 (HSP90a protein): < 6.00
pEC50 [2]: < 6.00

Reference: patent US20230391772A1, “METHODS AND COMPOSITIONS FOR TARGETED PROTEIN DEGRADATION” (Ranok Therapeutics (Hangzhou) Co. Ltd., priority 2020, published 2023)
